# Results: publication PMC10686989, “Distinct activation mechanisms of β-arrestin-1 revealed by ^19F NMR spectroscopy” (Nature Communications, 2023)
# Columns and labels:
# βarr1 = molecular target: T1, βarr1 (Homo sapiens, UniProt P49407, C125S/C140L/C150V/C242V/C251V/C269S/C59V/D390C); experiment: 19F CEST experiments on βarr1; assay type: biochemical
# T1 construct: we started from a full-length functional cysteine-less βarr1 construct[20]; 6xHis-tag with SSG linker and thrombin cleavage site (N, cleaved yes); made in house; host or cells: E. coli BL21(DE3)
# Experimental: The ^19F CEST experiments were acquired at 298 K on Bruker AVANCE III HD 800 MHz spectrometer equipped a ^1H-^19F/^13C/^15N TCI triple resonance cryogenic probe. Sample preparation was the same as for the 1D ^19F NMR experiments, and the protein concentrations were in the range of 50–100 μM depending on the expression levels of different constructs. For each ^19F-labeled sample, a series of 1D saturation transfer experiments were recorded using a 0.2 s recovery delay followed by a 1.8 s saturation period using irradiation field strengths B1 of 10 Hz. For each sample, the positions and spacings of the carrier frequencies for saturation were determined based on the multiple signals observed in the 1D ^19F spectra, normally covering the chemical shift ranges of the signals of interest. The data were collected with a spectral width of 15,000 Hz and the scan number in the range of 400–1500. The spectra were processed and analyzed using the Bruker Topspin 4.2.0 software. The CEST profiles were drawn using GraphPad Prism® 9.
# [1] = system: βarr1-3Q (K232Q/R236Q/K250Q); experiment: 1D 19F NMR of PIP2-binding deficient mutant; assay type: biochemical, human; conditions: H295C site
# Experimental: The ^19F-labeled βarr1 was diluted to 50 μM using buffer E before incubation with peptides or PIP2. The V2Rpp, β2AR-GRK2pp/GRK6pp or PIP2 were added at 1.2-fold, 3-fold, and 1.5-fold molar ratio excess to the protein, respectively. For the membrane-bound sample, the reconstituted nanodiscs were added at twofold molar ratio of βarr1. All complexes were incubated at 25 °C for 1 h, and the freshly prepared samples were immediately subjected to ^19F NMR experiments.
# NMR samples were prepared in buffer E to a final volume of 140 μL, supplemented with 1 mM DTT, 10% D2O for field lock, and 1 μM sodium trifluoroacetate (STFA) as the internal chemical shift reference. All samples were sterile-filtered and loaded into sterile 3 mm NMR microtubes to prevent microbial contamination. Final protein concentrations vary for different constructs, depending on their expression levels and stabilities, but all in the range of 20–50 μM.
# (§1) All ^19F NMR spectra were recorded at 298 K using a Bruker AVANCE III HD 800 MHz spectrometer equipped with a ^1H-^19F/^13C/^15N TCI triple resonance cryogenic probe. […] The carrier frequency was set to −68.0 ppm and the spectra were recorded with 4k points and a spectral width of 15,000 Hz. […]
# (§2) All NMR data were analyzed using the MestraNova 12.0.0 software (https://mnova.pl). […] Peak intensities, integrated peak area and linewidths were determined based on the fitted results.
# βarr1-1-395 = experiment: 1D 19F NMR of distal CT-deleted construct; assay type: biochemical, human; conditions: H295C site; PIP2
# Excerpt: (§3) The cysteine-less mutant (C59V/C125S/C140L/C150V/C242V/C251V/C269S) of the long splice variant of human βarr1 was used for introduction of single site cysteine mutation for ^19F labeling. The sequence was codon-optimized for expression in Escherichia coli and cloned into a pET-28a(+) vector (Novagen), with an N-terminal 6xHis-tag, followed by an SSG linker and a thrombin cleavage site. All mutants, including the 1–382 (βarr1-ΔCT) and 1–395 truncation constructs, were generated using site-directed mutagenesis kits (Thermo Fisher). Primer sequences for generating the mutants are listed in Supplementary Table 4.
# (§4) The ^19F-labeled βarr1 was diluted to 50 μM using buffer E before incubation with peptides or PIP2. The V2Rpp, β2AR-GRK2pp/GRK6pp or PIP2 were added at 1.2-fold, 3-fold, and 1.5-fold molar ratio excess to the protein, respectively. […]
# as §1, §2
# [2] = system: βarr1-ΔCT (residues 1–382); experiment: 19F NMR (1D and CEST) of CT-truncated construct; assay type: biochemical, human; conditions: E206C site; PIP2 added to pre-activated ΔCT state
# Excerpt: as §3, §4, §1
# All NMR data were analyzed using the MestraNova 12.0.0 software (https://mnova.pl). […] Peak intensities, integrated peak area and linewidths were determined based on the fitted results. […]
# T1 sequence (P49407 whole entry C59V/C125S/C140L/C150V/C242V/C251V/C269S/D390C): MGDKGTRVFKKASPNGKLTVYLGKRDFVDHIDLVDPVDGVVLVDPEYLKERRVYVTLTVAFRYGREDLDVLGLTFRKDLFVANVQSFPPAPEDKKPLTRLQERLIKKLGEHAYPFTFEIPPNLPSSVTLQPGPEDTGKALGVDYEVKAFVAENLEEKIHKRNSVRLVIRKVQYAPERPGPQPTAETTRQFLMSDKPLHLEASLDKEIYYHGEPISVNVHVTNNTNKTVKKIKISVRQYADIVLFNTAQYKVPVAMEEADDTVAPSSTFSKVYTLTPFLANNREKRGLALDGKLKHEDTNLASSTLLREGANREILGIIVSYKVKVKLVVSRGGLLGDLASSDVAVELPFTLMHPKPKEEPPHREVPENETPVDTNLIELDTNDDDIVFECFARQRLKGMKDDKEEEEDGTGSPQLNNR
smiles,measurement,setting,value
"CCCCCCCC(=O)OC[C@H](COP(=O)(O)O[C@@H]1[C@H](O)[C@H](O)[C@@H](OP(=O)(O)O)[C@H](OP(=O)(O)O)[C@H]1O)OC(=O)CCCCCCC [PIP2, diC8-PI(4,5)P2]",Intermediate S* state by CEST,βarr1; D390C site,induces an intermediate conformational species designated as S*
same,Intermediate S* state by CEST,βarr1; E404C and T6C sites,induces the conformational equilibrium to shift from the basal towards an intermediate S* state
same,Intermediate S* state by CEST,βarr1; H295C site,present in relatively large fraction in both the basal and PIP2-bound states
same,Transition to S2 state,[1],such spectral changes were not observed
same,Transition to S2 state,βarr1-1-395,promotes the S2 conformation to an extent comparable with full-length βarr1
same,Active S2 conformation,[2],increases the active S2 conformation
